Assay results reported in patent US5324747A, “N-substituted anilines, inhibitors of phospholipases A2” (Hoffmann-La Roche Inc., priority 1992, dated 1994).
pIC50: −log10 of the molar value.

What was measured:
HSF-PLA2 = biological target: T1, HSF-PLA2 (Homo sapiens, UniProt P14555); assay: Assay for Inhibition of HSF-PLA2 In Vitro; assay type: biochemical; conditions: for pIC50: read-out: Inhib of HSF-PLA2 IC50; for inhibition at 1 µM / inhibition at 5 µM: read-out: Inhib of HSF-PLA2, % inhibition
T1 construct: extracellular enzyme obtained from human synovial fluid (HSF-PLA2); from tissue; host or cells: pooled human synovial fluid, added at 0.1% (v/v)
T1 sequence (P14555 21-144): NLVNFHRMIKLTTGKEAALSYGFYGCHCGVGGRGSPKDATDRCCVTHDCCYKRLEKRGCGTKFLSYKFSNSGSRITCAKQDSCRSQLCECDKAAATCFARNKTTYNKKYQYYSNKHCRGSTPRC
Summary of the method: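 Extracellular PLA2 isolated from human synovial fluid, incubated 30 min at 37 °C with 14C-labelled phospholipid substrate in duplicate. Lipids were chloroform-extracted, and released 14C-oleic acid was separated from substrate by silica TLC; a no-enzyme control was run in each experiment.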

PLA2 Rat Paw Edema = assay: Phospholipase A2 Rat Paw Edema; assay type: in vivo, Lewis rats; conditions: for inhibition in vivo at 30 mg/kg: Rattus norvegicus, 2 hr, read-out: % Inhib of PLA2 Rat Paw Edema 2 hr (30 mg/kg)
Summary of the method: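 Lewis rats (~200 g, n=7) dosed i.p. (in DMSO) or orally (in Labrafil M-1944CS) 1 h before subplantar injection of 5 ug Naja naja PLA2 into right hind paw. Paw volume by plethysmometry at 0.5, 2 and 4 hr minus baseline; % change versus vehicle, Student's t-test.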

[1] = test system: rat carrageenan-induced paw edema; assay: Rat Carrageenan Paw Edema; assay type: in vivo, Lewis rats; conditions: 2 h, 30 mg/kg ip
Description: Rat Carrageenan Paw Edema
Representative compounds of the invention were tested in rat carrageenan-induced paw edema to determine their ability to inhibit this acute inflammatory response. Test compounds are administered intraperitoneally or orally to groups of seven Lewis rats (≈200 gm) 1 hr prior to carrageenan administration. The test compounds are dissolved in dimethyl sulfoxide for intraperitoneal administration and dissolved or suspended in Labrafil […] for oral administration. At 0 hour, 0.1 mL of 1% carrageenan dissolved in pyrogen free saline is injected subplantarly into the right hind paw to elicit the inflammatory response. The volume (in mL) of the right hind paw is measured by immersion of the paw to the level of the lateral malleolus in an aqueous plethysmometer immediately prior to the injection of carrageenan and then at 1, 2 and 4 hr after carrageenan injection. The paw edema is calculated by substracting the zero time reading from the readings taken after injection. The percent change of the edema volume from the vehicle treated control is calculated to determine the activity of the test compound. Statistical analysis of the mean paw edema values of the control versus the treated groups are performed using Student's t-test.

[2] = test system: Croton Oil Mouse Ear Edema; assay: Croton Oil Mouse Ear Edema Test; assay type: in vivo, CD-1 mice; conditions: topical, coapplied, 6 hours
Description: Twenty five μl of a 1% croton oil solution [dissolved in a mixture of pyridine/water/diethyl ether at a ratio of 5/20/75 (croton oil vehicle)] are applied to the outer side of the right ear of 3-4 week old made CD-1 mice (8 animals per group). The test compounds are dissolved directly in the 1% croton oil solution at various concentrations and coapplied. Control animals receive 25 μl of croton oil vehicle on the right ear. Biopsy punches are removed at 6 hours from the right ear of the animals using a 6 mm skin trephine (Roboz, Washington, D.C.) and the wet weight of the ear punches is determined. The weight of the biopsy punches is a measure of ear inflammation, primarily edema. The data are expressed as percent inhibition relative to control groups.

Row | Compound | pIC50 (HSF-PLA2) | inhibition in vivo at 30 mg/kg (PLA2 Rat Paw Edema) [%] | inhibition in vivo at 30 mg/kg [1] [%] | % Inhib of Croton Oil Mouse Ear Edema (1 mg) [2] [%] | inhibition at 1 µM (HSF-PLA2) [%] | inhibition at 5 µM (HSF-PLA2) [%] | % Inhib of PLA2 Rat Paw Edema 2 hr (PLA2 Rat Paw Edema; (10 mg/kg)) [%]
1 | CCCCCCCCCCOc1cccc(N(CC(=O)O)CC(=O)O)c1 [Example 36a, N-(carboxymethyl)-N-[3-(decyloxy)phenyl]glycine] | 5.54 | 35 | 47 | – | – | – | –
2 | CCCCCCCCCCCCCCCCCCOc1cc(OCCCCC(=O)O)cc(N(CC(=O)O)CC(=O)O)c1 [Example 65, N-[3-(4-Carboxybutoxy)-5-(octadecyloxy)phenyl]-N-(carboxymethyl)glycine] | 6.07 | 35 | – | 91 | – | – | –
3 | CCCCCCCCCCCCCCCCCCOc1cc(C(=O)OC)cc(N(CC(=O)O)CC(=O)O)c1 [Example 69, N-(Carboxymethyl)-N-[3-(methoxycarbonyl)-5-(octadecyloxy)phenyl]glycine] | 7.00 | 57 | – | 22 | – | – | –
4 | CCCCCCCCCCCCCCOc1cc(C(=O)OC)cc(N(CC(=O)O)CC(=O)O)c1 [Example 69a, N-(carboxymethyl)-N-[(3-methoxycarbonyl)-5-(tetradecyloxy)phenyl]glycine] | – | 12 | – | 71 | 52 | – | –
5 | CCCCCCCCCCCCCCOc1cc(C(=O)O)cc(N(CC(=O)O)CC(=O)O)c1 [Example 69b, N-[3-carboxy-5-(tetradecyloxy)pyhenyl]-N-(carboxymethyl)glycine] | – | 4 | – | 72 | 18 | – | –
6 | CCCCCCCCCCOc1cc(C(=O)O)cc(N(CC(=O)O)CC(=O)O)c1 [Example 69d, N-[3-carboxy-5-(decyloxy)phenyl]-N-(carboxymethyl)glycine] | – | 0 | – | 63 | 7 | – | –
7 | CCCCCCCCCCCCCCCCCCOc1cc(C(N)=O)cc(N(CC(=O)O)CC(=O)O)c1 [Example 75, N-(Carboxymethyl)-N-[(3-carbamoyl)-5-(octadecyloxy)phenyl]glycine] | – | 33 | – | 15 | – | 84 | –
8 | CCCCCCCCCCCCCCCCCCOc1cc(O)cc(N(CC(=O)O)CC(=O)O)c1 [Example 81, N-(Carboxymethyl)-N-[3-hydroxy-5-(octadecyloxy)phenyl]glycine] | 6.64 | – | – | 69 | – | – | 44
9 | CCCCCCCCCCCCCCCCCCOc1cc(N(CC(=O)O)CC(=O)O)cc([N+](=O)[O-])c1 [Example 93, N-(Carboxymethyl)-N-[3-nitro-5-(octadecyloxy)phenyl]glycine] | – | 20 | – | 0 | 56 | – | –
10 | CCCCCCCCCCCCCCCCCCOc1cc(N)cc(N(CC(=O)O)CC(=O)O)c1 [Example 94, N-(Carboxymethyl)-N-[3-amino-5-(octadecyloxy)phenyl]glycine] | 6.38 | 28 | – | 10 | – | – | –
11 | CCCCCCCCCCCCCCCCCCOc1cc(OCCCOc2cccc(Br)c2)cc(N(CC(=O)O)CC(=O)O)c1 [Example 108, N-(Carboxymethyl)-N-3-[3-[3-(bromophenoxy)propoxy]-5-(octadecyloxy)phenyl]glycine] | – | 12 | 33 | 34 | 92 | – | –
12 | CCCCCCCCCCCCCCOc1ccc(N(CC(=O)O)CC(=O)O)cc1OCCCCCCCCCCCCCC [Example 119, N-(Carboxymethyl)-N-[3,4-bis(tetradecyloxy)phenyl]glycine] | – | 16 | – | 49 | 36 | – | –
13 | CCCCCCCCCC(=O)Oc1ccc(N(CC(=O)O)CC(=O)O)cc1OC(=O)CCCCCCCCC [Example 123, N-(Carboxymethyl)-N-[3,4-bis[(1-oxodecyl)oxy]phenyl]glycine] | 6.32 | 4 | – | 58 | – | – | –
14 | CCCCCCCCCCCCCCCCCCOc1cc(OCCCCCc2cccc(O)c2O)cc(N(CC(=O)O)CC(=O)O)c1 [Example 146] | 6.70 | 74 | 55 | 18 | – | – | –
15 | CCCCCCCCCCCCCCCCCCOc1cc(OCc2ccc3ccccc3n2)cc(N(CC(=O)O)CC(=O)O)c1 [Example 148, N-(Carboxymethyl)-N-[3-(octadecyloxy)-5-[(2-quinolinyl)methoxy]phenyl]glycine] | – | 37 | – | 26 | 91 | – | –
16 | CCCCCCCCCCCCCCCCCCOc1cc(OCCCCc2ccc3cc(O)c(O)cc3c2)cc(N(CC(=O)O)CC(=O)O)c1 [Example 154, N-(Carboxymethyl)-N-[3-[4-(2,3-dihydroxy-6-naphthalenyl)butoxy]-5-(octadecyloxy)phenyl]glycine] | – | 78 | 70 | – | 96 | – | –
17 | CCCCCCCCCCCCCCCCCCOc1cc(OCCCOc2ccc([S+](C)[O-])cc2)cc(N(CC(=O)O)CC(=O)O)c1 (stereo not drawn) [Example 159] | – | 78 | 44 | 59 | 100 | – | –
18 | CCCCCCCCCCCCCCCCCCOc1cc(OCCCOc2ccc(S(C)(=O)=O)cc2)cc(N(CC(=O)O)CC(=O)O)c1 [Example 161, N-(Carboxymethyl)-N-[3-[3-[4-(methylsulfonyl)phenoxy]propoxy]-5-(octadecyloxy)phenyl]glycine] | – | 66 | 56 | 87 | 100 | – | –
19 | CCCCCCCCCCCCCCCCCCOc1cc(NS(=O)(=O)C(F)(F)F)cc(N(CC(=O)O)CC(=O)O)c1 [Example 162, N-(Carboxymethyl)-N-[3-(octadecyloxy)-5-[[(trifluoromethyl)sulfonyl]amino]phenyl]glycine] | – | 65 | 69 | 79 | 82 | – | –
20 | CCCCCCCCCCCCCCCCCCOc1cc(N(CC(=O)O)CC(=O)O)cc([S+]([O-])CC(=O)O)c1 (stereo not drawn) [Example 168, [[3-[bis(Carboxymethyl)amino]-5-(octadecyloxy)phenyl]sulfinyl]acetic acid] | – | 45 | – | 83 | 26 | – | –
21 | CCCCCCCCCCN(CCCCCCCCCC)C(=O)c1cccc(N(CC(=O)O)CC(=O)O)c1 [Example 174] | – | 46 | – | 29 | – | 74 | –
22 | CCCCCCCCCCCCCCCCCCOc1cc(OCCCOc2ccc(C(C)(C)C)cc2)cc(N(CC(=O)O)CC(=O)O)c1 [Example 177, N-(Carboxymethyl)-N-[3-[3-[4-(1,1-dimethylethyl)phenoxy]propoxy]-5-(octadecyloxy)phenyl]glycine] | – | 41 | 57 | 22 | 95 | – | –
